The values that follow come from patent US20240350402A1, “TOPICAL DRUG TREATMENT TO PREVENT OR REDUCE CORNEAL SCARRING” (The Cleveland Clinic Foundation, priority 2021, published 2024).

Test [1] relates to collagen type IV. Nature of the test: Alkali burn model: IHC collagen type IV intensity in anterior and posterior stroma (ImageJ). The class given is in vivo, rabbit. Conditions: one month. On the procedure:
Worth, TX) and a 5 mm diameter circular Whatman No. 1 filter paper (Cat #1001-6508, Fisher Scientific) wetted with 100 μl of 1N NaOH solution. Following the alkali burn injury, the cornea was irrigated profusely with BSS. Each injured cornea also received one drop of ciprofloxacin (Alcon, Ft. Worth, TX, USA) ten minutes after surgery and four times a day for one week and at least 15 minutes apart from the study medications. […] Worth TX), at least 5 minutes apart, or 4) 50 μl of BSS. Multiplex immunohistochemistry (IHC) was performed using previously described methods^8 and primary antibodies (Table 7) confirmed by western blotting and IHC to recognize rabbit antigens or isotypic control antibodies (Thermo Fisher Scientific, Waltham, MA), and secondary fluorescent tagged antibodies (Table 7). The collagen type IV antibody (Cat. #AB769, Millipore, Temecula CA) was raised against purified human and bovine collagen type IV that had been affinity purified with human and bovine collagen type IV crosslinked to agarose and cross-absorbed by the manufacturer with human and bovine collagens type I, II, III, V and VI to eliminate cross-reactivity. This collagen type IV antibody was shown previously to bind rabbit collagen IV in IHC,^8,9 and recognizes the alpha-1/alpha-2 chains but not the alpha-3 to alpha-6 chains. The keratocan antibody is raised against peptide […]-OH (SEQ ID NO:1). This marker was used to identify keratocytes in situ. […] All corneas in each group had IHC for collagen type IV. Images from each cornea were converted to uniform 300 DPI, 875×568 pixel, files. […] The staining intensity within each box was determined with the analyze histogram function and the mean of three boxes was the intensity value in the anterior or posterior stroma for that cornea.

Test [2] has as its system α-SMA-positive myofibroblasts. Nature of the test: Alkali burn model: IHC α-SMA-positive stromal area and intensity (ImageJ). The class given is in vivo, rabbit. Conditions: one month. The method, then: Alkali injuries were produced in one eye of rabbits with previously published methods^10 using 1N sodium hydroxide (Sigma, St. Louis, MO) in balanced salt solution (BSS, 0.64% sodium chloride, 0.075% potassium chloride, 0.048% calcium chloride dihydrate, […] magnesium chloride hexahydrate, 0.39% sodium acetate trihydrate, 0.17% sodium citrate dihydrate, pH 7.5, Alcon, H. Worth, TX) and a 5 mm diameter circular Whatman No. 1 filter paper (Cat #1001-6508, Fisher Scientific) wetted with 100 μl of 1N NaOH solution. Following the alkali burn injury, the cornea was irrigated profusely with BSS. Each injured cornea also received one drop of ciprofloxacin (Alcon, Ft. Worth, TX, USA) ten minutes after surgery and four times a day for one week and at least 15 minutes apart from the study medications.
Worth TX), at least 5 minutes apart, or 4) 50 μl of BSS. […]
The area of the α-SMA-positive stroma in mm^2 and the total α-SMA opacity in pixels were quantitated using standardized images obtained with a 10× objective on a Leica DM6B upright microscope equipped with an automated stage and Leica 7000 T camera using the LAS X software (Leica Microsystems, GmbH, Wetzlar, Germany). The means of three central corneal sections were analyzed from each cornea to provide the area of α-SMA-positive stroma and the total α-SMA opacity. The area of α-SMA-positive stroma in mm^2 for each cornea was determined from full diameter and thickness central corneal section images (all converted to 300 DPI, 885 width×500 height, files with identical +50% brightness increase in Photoshop for all images) with the ImageJ 1.53a analysis software using the freehand selection tool to delineate the area(s) of α-SMA-positive staining. […] In these same sections for each cornea, the total α-SMA-positive intensity in pixels was also determined with ImageJ, similarly by using the summation if separate α-SMA-positive areas were present. […]

With `CCCCc1nc(Cl)c(CO)n1Cc1ccc(-c2ccccc2-c2nn[nH]n2)cc1` [losartan], in test [1], the “COL IV staining intensity in the posterior stroma vs vehicle treatment” value was “significantly different” and the “mean intensity units of collagen type IV in the anterior stroma compared to vehicle treatment” value is on record as “significantly decreased”. Also, in test [2], the “total α-SMA area vs vehicle control group” value is “trend”. In addition, the “localization of α-SMA-positive myofibroblasts in the stroma” value in test [2] (topical six times per day) is “confined mostly to the posterior half of the stroma”.
